Source: patent US9980943B2, “Methods of treating muscular dystrophy” (BOARD OF REGENTS OF THE NEVADA SYSTEM OF HIGHER EDUCATION, …, priority 2013, dated 2018)

Legend:
Format in all cases: cell-based, mouse
[1] = system: α7 integrin (LacZ reporter in α7βgal+/− myoblasts); experiment: Myoblast α7+/LacZ integrin FDG assay (Burkin assay in myoblasts, 96-well); details: 96-well; for Burkin Assay in Myoblasts, signal relative to DMSO: α7+/LacZ myoblasts; for Burkin Assay in Myoblasts, value relative to DMSO: SU9516 analogs, N=3-6
[2] = system: α7 integrin (LacZ reporter in α7+/LacZ myotubes); experiment: Myotube α7 integrin FDG assay (Burkin assay in myotubes, 96-well); details: for Burkin Assay in Myotubes, value relative to DMSO: SU9516 analogs, 96-well, N=3-6
[3] = system: β-galactosidase in CMV-LacZ C2C12 myoblasts; experiment: CMV-LacZ secondary screen in C2C12 myoblasts (β-Gal stabilizing assay); details: for CMV-LACZ in Myoblasts (β-galactosidase activity relative to DMSO): CMV-LacZ C2C12 myoblasts; for CMV-LACZ in Myoblasts, value relative to DMSO: SU9516 analogs, C2C12 CMV-LacZ, N=2
Procedure, shortened: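 Stable CMV-LacZ C2C12 clone; six-point curve 0.5–40 μM; duplicates.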

[4] = system: β-galactosidase in CMV-LacZ C2C12 myotubes; experiment: CMV-LacZ secondary screen in C2C12 myotubes (β-Gal stabilizing assay); details: for CMV-LACZ in Myotubes, signal relative to DMSO: C2C12 CMV-LacZ myotubes, fold relative to DMSO; for CMV-LACZ in Myotubes, value relative to DMSO: SU9516 analogs, C2C12 CMV-LacZ, N=2
Procedure, shortened: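 β-Gal level was the read-out, measured in a clonal C2C12 line expressing LacZ from a CMV promoter. Dose-response curves used six concentrations, 0.5 μM up to 40 μM, with duplicate points.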

## CC(C)(C)c1ccc(C(=O)OCC(=O)Nc2sc3c(c2C#N)CCC3)cc1 [MLS000392555-01]
[1]; 0.5 uM
  Burkin Assay in Myoblasts, signal relative to DMSO: 1.2055
[1]; 1 uM
  Burkin Assay in Myoblasts, signal relative to DMSO: 1.101
[1]; 5 uM
  Burkin Assay in Myoblasts, signal relative to DMSO: 1.3
[1]; 10 uM
  Burkin Assay in Myoblasts, signal relative to DMSO: 0.9734
[1]; 20 uM
  Burkin Assay in Myoblasts, signal relative to DMSO: 1.314
[1]; 40 uM
  Burkin Assay in Myoblasts, signal relative to DMSO: 1.226
[2]; 0.5 uM
  Burkin Assay in Myotubes, α7 integrin LacZ reporter signal relative to DMSO: 0.9647
[2]; 1 uM
  Burkin Assay in Myotubes, α7 integrin LacZ reporter signal relative to DMSO: 0.9664
[2]; 5 uM
  Burkin Assay in Myotubes, α7 integrin LacZ reporter signal relative to DMSO: 1.105
[2]; 10 uM
  Burkin Assay in Myotubes, α7 integrin LacZ reporter signal relative to DMSO: 0.9741
[2]; 20 uM
  Burkin Assay in Myotubes, α7 integrin LacZ reporter signal relative to DMSO: 0.935
[2]; 40 uM
  Burkin Assay in Myotubes, α7 integrin LacZ reporter signal relative to DMSO: 0.9301
[3]; 0.5 uM
  CMV-LACZ in Myoblasts (β-galactosidase activity relative to DMSO): 0.8954
[3]; 1 uM
  CMV-LACZ in Myoblasts (β-galactosidase activity relative to DMSO): 0.7638
[3]; 5 uM
  CMV-LACZ in Myoblasts (β-galactosidase activity relative to DMSO): 0.9342
[3]; 10 uM
  CMV-LACZ in Myoblasts (β-galactosidase activity relative to DMSO): 0.9799
[3]; 20 uM
  CMV-LACZ in Myoblasts (β-galactosidase activity relative to DMSO): 0.9559
[3]; 40 uM
  CMV-LACZ in Myoblasts (β-galactosidase activity relative to DMSO): 1.2007
[4]; 0.5 uM
  CMV-LACZ in Myotubes, signal relative to DMSO: 1.0257
[4]; 1 uM
  CMV-LACZ in Myotubes, signal relative to DMSO: 0.9676
[4]; 5 uM
  CMV-LACZ in Myotubes, signal relative to DMSO: 1.0094
[4]; 10 uM
  CMV-LACZ in Myotubes, signal relative to DMSO: 0.8568
[4]; 20 uM
  CMV-LACZ in Myotubes, signal relative to DMSO: 1.1537
[4]; 40 uM
  CMV-LACZ in Myotubes, signal relative to DMSO: 0.9326

## CSc1ccc(S(=O)(=O)NCc2ccccc2)cc1 [MLS000531177-01]
[1]; 0.5 uM
  Burkin Assay in Myoblasts, signal relative to DMSO: 0.8826
[1]; 1 uM
  Burkin Assay in Myoblasts, signal relative to DMSO: 0.923
[1]; 5 uM
  Burkin Assay in Myoblasts, signal relative to DMSO: 1.067
[1]; 10 uM
  Burkin Assay in Myoblasts, signal relative to DMSO: 1.625
[1]; 20 uM
  Burkin Assay in Myoblasts, signal relative to DMSO: 1.014
[1]; 40 uM
  Burkin Assay in Myoblasts, signal relative to DMSO: 0.8008
[2]; 0.5 uM
  Burkin Assay in Myotubes, α7 integrin LacZ reporter signal relative to DMSO: 0.8259
[2]; 1 uM
  Burkin Assay in Myotubes, α7 integrin LacZ reporter signal relative to DMSO: 0.7329
[2]; 5 uM
  Burkin Assay in Myotubes, α7 integrin LacZ reporter signal relative to DMSO: 1.051
[2]; 10 uM
  Burkin Assay in Myotubes, α7 integrin LacZ reporter signal relative to DMSO: 1.163
[2]; 20 uM
  Burkin Assay in Myotubes, α7 integrin LacZ reporter signal relative to DMSO: 0.8007
[2]; 40 uM
  Burkin Assay in Myotubes, α7 integrin LacZ reporter signal relative to DMSO: 0.9005
[3]; 0.5 uM
  CMV-LACZ in Myoblasts (β-galactosidase activity relative to DMSO): 1.0785
[3]; 1 uM
  CMV-LACZ in Myoblasts (β-galactosidase activity relative to DMSO): 1.5065
[3]; 5 uM
  CMV-LACZ in Myoblasts (β-galactosidase activity relative to DMSO): 1.0150
[3]; 10 uM
  CMV-LACZ in Myoblasts (β-galactosidase activity relative to DMSO): 0.8958
[3]; 20 uM
  CMV-LACZ in Myoblasts (β-galactosidase activity relative to DMSO): 1.2952
[3]; 40 uM
  CMV-LACZ in Myoblasts (β-galactosidase activity relative to DMSO): 0.9422
[4]; 0.5 uM
  CMV-LACZ in Myotubes, signal relative to DMSO: 1.1989
[4]; 1 uM
  CMV-LACZ in Myotubes, signal relative to DMSO: 1.0411
[4]; 5 uM
  CMV-LACZ in Myotubes, signal relative to DMSO: 0.8757
[4]; 10 uM
  CMV-LACZ in Myotubes, signal relative to DMSO: 0.8917
[4]; 20 uM
  CMV-LACZ in Myotubes, signal relative to DMSO: 0.9244
[4]; 40 uM
  CMV-LACZ in Myotubes, signal relative to DMSO: 1.1522

## O=C1Nc2ccccc2/C1=C/c1ccc([N+](=O)[O-])cc1 [MLS001194544-01]
[1]; 0.5 uM
  Burkin Assay in Myoblasts, value relative to DMSO: 1.044
[1]; 1 uM
  Burkin Assay in Myoblasts, value relative to DMSO: 0.9906
[1]; 5 uM
  Burkin Assay in Myoblasts, value relative to DMSO: 1.02
[1]; 10 uM
  Burkin Assay in Myoblasts, value relative to DMSO: 1.145
[1]; 20 uM
  Burkin Assay in Myoblasts, value relative to DMSO: 0.7914
[1]; 40 uM
  Burkin Assay in Myoblasts, value relative to DMSO: 0.5028
[2]; 0.5 uM
  Burkin Assay in Myotubes, value relative to DMSO: 0.9611
[2]; 1 uM
  Burkin Assay in Myotubes, value relative to DMSO: 0.9995
[2]; 5 uM
  Burkin Assay in Myotubes, value relative to DMSO: 1.002
[2]; 10 uM
  Burkin Assay in Myotubes, value relative to DMSO: 1.07
[2]; 20 uM
  Burkin Assay in Myotubes, value relative to DMSO: 0.754
[2]; 40 uM
  Burkin Assay in Myotubes, value relative to DMSO: 0.7611
[3]; 0.5 uM
  CMV-LACZ in Myoblasts, value relative to DMSO: 0.8975
[3]; 1 uM
  CMV-LACZ in Myoblasts, value relative to DMSO: 0.7213
[3]; 5 uM
  CMV-LACZ in Myoblasts, value relative to DMSO: 0.9068
[3]; 10 uM
  CMV-LACZ in Myoblasts, value relative to DMSO: 1.0363
[3]; 20 uM
  CMV-LACZ in Myoblasts, value relative to DMSO: 0.8983
[3]; 40 uM
  CMV-LACZ in Myoblasts, value relative to DMSO: 0.7383
[4]; 0.5 uM
  CMV-LACZ in Myotubes, value relative to DMSO: 1.0764
[4]; 1 uM
  CMV-LACZ in Myotubes, value relative to DMSO: 1.1318
[4]; 5 uM
  CMV-LACZ in Myotubes, value relative to DMSO: 0.9683
[4]; 10 uM
  CMV-LACZ in Myotubes, value relative to DMSO: 0.9739
[4]; 20 uM
  CMV-LACZ in Myotubes, value relative to DMSO: 0.9800
[4]; 40 uM
  CMV-LACZ in Myotubes, value relative to DMSO: 0.9400
